Assay results from BindingDB's records for doi:10.7270/Q2B27SRF (Broad Institute, 2010).

Target: Serine/threonine-protein kinase 33 (Homo sapiens, UniProt Q9BYT3)
Assay: STK33 kinase inhibitors, dose response, biochemical, luminescence, cell-free, retest (AID 2821)

Serine/threonine-protein kinase 33, sequence (Q9BYT3 whole entry): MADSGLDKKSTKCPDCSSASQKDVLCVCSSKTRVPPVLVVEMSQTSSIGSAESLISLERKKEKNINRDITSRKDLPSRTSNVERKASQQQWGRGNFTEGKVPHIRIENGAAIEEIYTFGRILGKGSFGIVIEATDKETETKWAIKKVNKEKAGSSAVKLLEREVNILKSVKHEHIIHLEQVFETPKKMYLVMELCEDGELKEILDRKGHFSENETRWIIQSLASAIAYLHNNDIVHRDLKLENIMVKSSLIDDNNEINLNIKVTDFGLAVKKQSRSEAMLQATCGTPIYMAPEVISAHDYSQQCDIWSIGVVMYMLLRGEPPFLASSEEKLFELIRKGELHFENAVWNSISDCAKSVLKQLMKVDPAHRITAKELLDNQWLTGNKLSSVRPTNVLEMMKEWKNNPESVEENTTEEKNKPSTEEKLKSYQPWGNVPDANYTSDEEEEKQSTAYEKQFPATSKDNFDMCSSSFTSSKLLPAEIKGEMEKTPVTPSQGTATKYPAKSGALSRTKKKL

SMILES | EC50
CCCCCCCCCCCCCCCC[n+]1cccc2ccccc21 [1-cetylquinolin-1-ium;iodide] | > 120 µM
O=C(c1ccc2c3n(nc2c1)-c1ccccc1CO3)N1CCOCC1 [5H-indazolo[2,3-a][3,1]benzoxazin-9-yl(4-morpholinyl)methanone] | 18.4 µM
COc1ccccc1Nc1oc2cc(=O)ccc-2cc1C(N)=O [2-(2-methoxyanilino)-7-oxo-1-benzopyran-3-carboxamide] | 30.9 µM
O=C(O)c1ccc(N=Cc2c(O)ccc3oc4c(c23)CCCC4)cc1 [4-{[1-(2-Hydroxy-6,7,8,9-tetrahydro-dibenzofuran-1-yl)-meth-(E)-ylidene]-amino}-benzoic acid] | 6.2 µM
O=C1N=c2ccccc2=C1NNc1ccc(C(=O)O)cc1 [4-[2-(2-oxidanylideneindol-3-yl)hydrazinyl]benzoic acid] | 36.8 µM

More lines, now with the values ahead:

EC50 | SMILES
> 120 µM | CCOC(=O)Cc1nnc(NC(=O)COc2ccc(C)cc2)s1 [MLS000082525]
17.9 µM | CCn1c2ccc(C)cc2c2nc3cc(C(=O)O)ccc3nc21 [6-ethyl-9-methylindolo[2,3-b]quinoxaline-2-carboxylic acid]
0.71 µM | COc1cc(C=CC(=O)CC(=O)C=Cc2ccc(O)c(OC)c2)ccc1O
3.83 µM | CCN(CC)c1ccc(/C=C2/C(=O)c3ccc(C(=O)O)cc3C2=O)cc1 [(2Z)-2-[[4-(diethylamino)phenyl]methylidene]-1,3-dioxoindene-5-carboxylic acid]
8.86 µM | CCSc1nc(N2CCOCC2)c2c(c1C#N)CCCC2 [3-(ethylthio)-1-(4-morpholinyl)-5,6,7,8-tetrahydroisoquinoline-4-carbonitrile]
> 120 µM | CCOc1cc(/C=C2\SC(N3CCCC(C)C3)=NC2=O)ccc1O (stereo unspecified) [(5Z)-5-[(3-ethoxy-4-hydroxyphenyl)methylidene]-2-(3-methylpiperidin-1-yl)-1,3-thiazol-4-one]
